In patent publication US9988607B2, “Artificial three-dimensional microenvironment niche culture and methods of using the same” (priority 2008, dated 2018):

Columns and labels:
Type in all cases: cell-based, human
HDF cells = assay: ViPS pluripotency factor replacement: chemical induction of iPS colonies in 3D microenvironment niche culture; settings: HDF in 3D ES cell microenvironment niche culture; preliminary
Description: To test the possibility of chemical induction of pluripotency in human dermal fibroblasts, well known compounds affecting these pluripotency factors were substituted for expression of the pluripotency factors from viral expression vectors. Candidate compounds included those that affect the Wnt pathway because activation of this pathway had been reported to be involved in OCT 3/4, Sox-2, and Nanog activation. The initial compounds tested included: BIO (6-bromoindirubin-3′-oxime), a specific pharmacological inhibitor of glycogen synthase kinase known to stimulate Wnt signaling and maintain pluripotency in human and mouse embryonic stem cells (Sato et al., Nat. Med. (2004) 10:55-63); prostaglandin E2 (PGE2), reported to be an activator of Wnt pathway via “cross talk” at the beta-catenin signal level; valproic acid, a histone deacetylase (HDAC) inhibitor, and Wnt pathway activator (Bug et al. (2005) Cancer Res 65:2537-41). […] These compounds were chosen for further experimentation since their mechanism of activity was previously determined and they appeared to activate the pluripotency signal transduction pathway (e.g. Wnt pathway).
Compounds were added to HDF cells grown in 3D ES cell microenvironment niche cultures (prepared as described above in EXAMPLES 1 and 2), to evaluate whether they would rescue iPS phenotype in the absence of individual pluripotency factors introduced retrovirally. ViPS cells, induced with lentiviral transduction of pluripotency factor genes (OCT4, Sox2, Nanog, Klf4) as described by Takahashi et al. ((2007), Cell 131:1-12). Data is presented as the number of colonies with iPS morphology observed per 100,000 host cells.
Stem cell self renewal optimized 3-D hydrogel ES microenvironment niche conditions (as described in EXAMPLEs 1 and 2) were found necessary for chemical induction of iPS state. Pluripotency was not observed when standard tissue culture plates or those coated with Matrigel or methylcellulose were substituted for the 3D microenvironment conditions.

[1] = test system: OCT3/4, SOX2, LIN28, KLF4 promoters; assay: Promoter-GFP reporter screen of compound library in HDF cells in 3D hyaluronan hydrogel niche culture; settings: for Activation of expression of one or more of the target promoters: GFP fluorescence after 4 days of incubation, normalized to ViPS control; for Optimized Concentration: empirically determined through repeat experiments with a broad range of concentrations
Method: (§1) Replicate microspots were prepared in Complete Media and transfected with reporter constructs for genes critically expressed in pluripotent cells. The reporter constructs contained promoter regions of one of the genes listed in Table 6 operably linked to a green fluorescent protein (GFP) coding region in pGlow TOPO TA (Invitrogen).
(§2) Briefly, a transient transfection mixture containing Lipofectamine 2000 (0.4 μl/24 μl total hyaluronan volume, Invitrogen) and promoter-Green Fluorescent Protein (GFP) construct in (500 ng) was added to each microspot.
(§3) Library screening was performed by including dilution series of each compound in mTeSR-1 medium, to HDF cells embedded in 3D hyaluronan hydrogel microenvironment niche culture optimized as described above in EXAMPLES 1 and 2.
(§4) After 4 days of incubation with target compounds, relative fluorescence from expression of the GFP constructs was recorded using a fluorescent microplate reader. Values were normalized to reflect percent fluorescence of control (ViPS) cells.
Compounds that activated expression of one or more of the target promoters were scored as positive.

OCT4 promoter = assay: Promoter-GFP reporter screen in HDF cells, OCT4 promoter; settings: FIG. 7
Method: as §1, §2, §3, §4

SOX2 promoter = assay: Promoter-GFP reporter screen in HDF cells, SOX2 promoter; settings: FIG. 7
Method: as §1, §2, §3, §4

Q: What does the source list for `CCCCC[C@H](O)/C=C/[C@H]1[C@H](O)CC(=O)[C@@H]1C/C=C\CCCC(=O)O` [D2-6542, Prostaglandin E2]?
A: Replacement of virally transduced pluripotency factors (colonies with iPS morphology per 100,000 host cells) (HDF cells): could be used to replace virally transduced pluripotency factors; Activation of expression of one or more of the target promoters [1]: positive; Optimized Concentration [1]: 10 µM

Q: For `O=C1Nc2ccc([N+](=O)[O-])cc2C1=C1Nc2ccccc2C1=NO` [D3-8976, Indirubin-5-nitro-3′-oxime], which “Activation of expression of one or more of the target promoters” value (shortened to “Activation”) [1] is on record?
A: positive

Q: And the “Optimized Concentration” value [1]?
A: 4 µM

Q: What does the source list for `O=C1Nc2cc(Br)ccc2/C1=C1/Nc2ccccc2/C1=N\O` [D9-6452, 6-bromoindirubin-3′-oxime]?
A: Replacement of virally transduced pluripotency factors (colonies with iPS morphology per 100,000 host cells) (HDF cells): could be used to replace virally transduced pluripotency factors; Activation of expression of one or more of the target promoters [1]: positive; Optimized Concentration [1]: 4 µM

Q: What does the source list for `CCCCC[C@H](O)/C=C/[C@H]1C(=O)C=C[C@@H]1C/C=C\CCCC(=O)O` [D9-9811, Prostaglandin J2]?
A: Replacement of virally transduced pluripotency factors (colonies with iPS morphology per 100,000 host cells) (HDF cells): could be used to replace virally transduced pluripotency factors; Activation of expression of one or more of the target promoters [1]: positive; Optimized Concentration [1]: 10 µM

Q: With `CCCC(CCC)C(=O)O` [D10-8976, Valproic Acid] as the molecule, how does the “Replacement of virally transduced pluripotency factors (colonies with iPS morphology per 100,000 host cells)” value (HDF cells) read?
A: could be used to replace virally transduced pluripotency factors

Q: And the “Activation” value [1]?
A: positive

Q: What about the “Optimized Concentration” value [1] of the same molecule?
A: 2000 µM

Q: And the “Expression of OCT4 promoter” value (OCT4 promoter)?
A: stimulate expression

Q: And the “Expression of SOX2 promoter” value (SOX2 promoter)?
A: stimulate expression

Q: For `Br.Cc1ccc(C(=O)Cn2c3c(sc2=N)CCCC3)cc1` [D12-2234, 1-(4-Methylphenyl)-2-(4,5,6,7-tetrahydro-2-imino-3(2H)-benzothiazolyl)ethanone HBr], which “Activation” value [1] is on record?
A: positive

Q: What about the “Optimized Concentration” value [1] of the same molecule?
A: 30 µM

Q: With `Cc1cccc(-c2n[nH]cc2-c2ccc3ncccc3n2)n1` [D21-8765, 2-(3-(6-Methylpyridin-2-yl)-1H-pyrazol-4-yl)-1,5-naphthyridine] as the molecule, how does the “Activation” value [1] read?
A: positive

Q: And the “Optimized Concentration” value [1]?
A: 25000 µM
